Experimental data as given in ChEMBL document CHEMBL3774360, “Potent multitarget FAAH-COX inhibitors: Design and structure-activity relationship studies” (Eur J Med Chem, 2016).
Activity calls are given as the source filed them. No cut-off for these calls is given here.

What was measured:
[1] = target: NAD-dependent protein deacetylase sirtuin-1 (Homo sapiens) (UniProt Q96EB6); assay: Inhibition of human sirtuin 1 at 10 uM; design: scale not given: the % may be the effect or the level left
[2] = target: Melatonin receptor type 1A (Homo sapiens) (UniProt P48039); assay: Binding affinity to human melatonin receptor type 1 at 10 uM by radioligand binding assay
[3] = target: Adenosine receptor A1 (Homo sapiens) (UniProt P30542); assay: Binding affinity to human adenosine A1 receptor at 10 uM by radioligand binding assay
[4] = organism: Homo sapiens; assay: Binding affinity to I2 imidazoline binding site (unknown origin) at 10 uM by radioligand binding assay
[5] = target: D(4) dopamine receptor (Homo sapiens) (UniProt P21917); assay: Binding affinity to human dopamine D4.4 receptor at 10 uM by radioligand binding assay
[6] = organism: Homo sapiens; assay: Binding affinity to PCP receptor (unknown origin) at 10 uM by radioligand binding assay
[7] = target: 3',5'-cyclic-AMP phosphodiesterase 4D (Homo sapiens) (UniProt Q08499); assay: Binding affinity to human PDE4D2 at 10 uM
[8] = target: Transient receptor potential cation channel subfamily V member 1 (Homo sapiens) (UniProt Q8NER1); assay: Agonist activity against human TRPV1 receptor at 10 uM
[9] = organism: Homo sapiens; assay: Binding affinity to P2X receptor (unknown origin) at 10 uM by radioligand binding assay
[10] = target: Transmembrane domain-containing protein TMIGD3 (Homo sapiens) (UniProt P0DMS9); assay: Binding affinity to human adenosine A3 receptor at 10 uM by radioligand binding assay
[11] = target: Thromboxane A2 receptor (Homo sapiens) (UniProt P21731); assay: Agonist activity against human TP receptor at 10 uM
[12] = target: Histamine H1 receptor (Homo sapiens) (UniProt P35367); assay: Binding affinity to human histamine H1 receptor at 10 uM by radioligand binding assay
[13] = target: D(3) dopamine receptor (Homo sapiens) (UniProt P35462); assay: Binding affinity to human dopamine D3 receptor at 10 uM by radioligand binding assay
[14] = target: Transient receptor potential cation channel subfamily V member 1 (Homo sapiens) (UniProt Q8NER1); assay: Antagonist activity against human TRPV1 receptor at 10 uM; design: scale not given: the % may be the effect or the level left
[15] = target: Type-2 angiotensin II receptor (Homo sapiens) (UniProt P50052); assay: Binding affinity to human angiotensin receptor 2 at 10 uM by radioligand binding assay
[16] = target: cGMP-inhibited 3',5'-cyclic phosphodiesterase 3A (Homo sapiens) (UniProt Q14432); assay: Binding affinity to human PDE3A at 10 uM
[17] = target: T1, Prostaglandin G/H synthase 1 (Ovis aries, UniProt P05979); assay: Inhibition of ovine COX1 assessed as production of PGF2-alpha preincubated with compound followed by the addition of 5 uM arachidonic acid as substrate by enzyme immunoassay
T1 sequence (P05979 whole entry): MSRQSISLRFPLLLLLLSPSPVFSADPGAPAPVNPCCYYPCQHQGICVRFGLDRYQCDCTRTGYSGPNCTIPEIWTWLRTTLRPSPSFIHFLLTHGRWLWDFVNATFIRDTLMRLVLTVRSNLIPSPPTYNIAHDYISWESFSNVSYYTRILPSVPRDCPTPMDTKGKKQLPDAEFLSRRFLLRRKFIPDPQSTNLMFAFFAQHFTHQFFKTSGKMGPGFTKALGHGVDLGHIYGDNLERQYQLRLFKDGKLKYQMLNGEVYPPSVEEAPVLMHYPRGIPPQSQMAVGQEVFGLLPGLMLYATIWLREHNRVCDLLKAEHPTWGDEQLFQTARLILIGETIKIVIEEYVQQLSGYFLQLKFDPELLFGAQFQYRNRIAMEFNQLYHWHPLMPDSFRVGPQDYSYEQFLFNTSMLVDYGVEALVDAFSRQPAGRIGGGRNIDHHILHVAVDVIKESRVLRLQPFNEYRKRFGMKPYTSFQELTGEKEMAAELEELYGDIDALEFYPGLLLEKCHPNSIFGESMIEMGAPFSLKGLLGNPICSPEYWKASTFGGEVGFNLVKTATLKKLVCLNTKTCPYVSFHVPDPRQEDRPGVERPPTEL

[18] = target: Neuromedin-K receptor (Homo sapiens) (UniProt P29371); assay: Binding affinity to human neurokinin 3 receptor at 10 uM by radioligand binding assay
[19] = test system: Mus musculus; assay: In-vivo inhibition of FAAH in mouse plasma assessed as increase in OEA level at 1 mg/kg, iv after 1 hr by LC-MS/MS analysis; format: functional, organism-based
[20] = target: Cannabinoid receptor 1 (Homo sapiens) (UniProt P21554); assay: Binding affinity to human cannabinoid receptor 1 at 10 uM by radioligand binding assay
[21] = target: Cholecystokinin receptor type A (Homo sapiens) (UniProt P32238); assay: Binding affinity to human cholecystokinin receptor type A at 10 uM by radioligand binding assay
[22] = target: Tyrosine 3-monooxygenase (Homo sapiens) (UniProt P07101); assay: Binding affinity to tyrosine hydroxylase (unknown origin) at 10 uM
[23] = target: Adenylate cyclase (Homo sapiens) (UniProt Q8NFM4+O60503+Q08828+P40145+O60266+O95622+O43306+Q08462+P51828); assay: Activation of adenylyl cyclase (unknown origin) at 10 uM; format: protein assay
[24] = target: Amine oxidase [flavin-containing] A (Homo sapiens, UniProt P21397); assay: Binding affinity to human MAO-A at 10 uM
[25] = organism: Homo sapiens; assay: Binding affinity to L-type calcium channel verapamil binding site (unknown origin) at 10 uM by radioligand binding assay
[26] = target: 4-aminobutyrate aminotransferase, mitochondrial (Homo sapiens) (UniProt P80404); assay: Binding affinity to GABA transaminase (unknown origin) at 10 uM
[27] = target: Calcitonin gene-related peptide 1 (Homo sapiens) (UniProt P06881); assay: Binding affinity to CGRP1 (unknown origin) at 10 uM
[28] = target: Acetylcholinesterase (Homo sapiens) (UniProt P22303); assay: Binding affinity to human acetylcholinesterase at 10 uM

Sequence of Transient receptor potential cation channel subfamily V member 1 (Homo sapiens) (Q8NER1 whole entry): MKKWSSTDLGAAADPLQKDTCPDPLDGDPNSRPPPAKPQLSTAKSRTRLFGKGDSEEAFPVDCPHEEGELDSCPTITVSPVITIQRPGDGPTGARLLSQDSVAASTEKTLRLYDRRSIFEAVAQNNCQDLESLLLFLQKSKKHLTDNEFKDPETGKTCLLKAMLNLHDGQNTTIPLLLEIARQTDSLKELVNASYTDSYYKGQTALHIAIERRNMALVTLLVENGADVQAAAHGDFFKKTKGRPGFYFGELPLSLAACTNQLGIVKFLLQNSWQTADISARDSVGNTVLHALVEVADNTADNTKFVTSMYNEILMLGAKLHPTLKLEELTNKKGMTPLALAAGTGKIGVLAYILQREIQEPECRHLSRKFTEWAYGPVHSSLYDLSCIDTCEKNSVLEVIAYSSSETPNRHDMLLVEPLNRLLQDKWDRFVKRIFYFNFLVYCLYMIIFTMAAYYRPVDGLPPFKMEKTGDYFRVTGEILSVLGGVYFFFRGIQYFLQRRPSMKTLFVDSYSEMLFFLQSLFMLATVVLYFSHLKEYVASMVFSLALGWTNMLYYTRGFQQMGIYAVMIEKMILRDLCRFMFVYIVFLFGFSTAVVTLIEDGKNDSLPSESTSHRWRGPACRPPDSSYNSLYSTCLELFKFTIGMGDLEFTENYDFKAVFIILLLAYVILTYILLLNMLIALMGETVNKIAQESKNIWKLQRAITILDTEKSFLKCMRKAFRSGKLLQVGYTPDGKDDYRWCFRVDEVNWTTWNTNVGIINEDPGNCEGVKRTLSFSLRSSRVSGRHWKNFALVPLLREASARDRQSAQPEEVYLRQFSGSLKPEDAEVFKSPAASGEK
Sequence of Adenosine receptor A1 (Homo sapiens) (P30542 whole entry): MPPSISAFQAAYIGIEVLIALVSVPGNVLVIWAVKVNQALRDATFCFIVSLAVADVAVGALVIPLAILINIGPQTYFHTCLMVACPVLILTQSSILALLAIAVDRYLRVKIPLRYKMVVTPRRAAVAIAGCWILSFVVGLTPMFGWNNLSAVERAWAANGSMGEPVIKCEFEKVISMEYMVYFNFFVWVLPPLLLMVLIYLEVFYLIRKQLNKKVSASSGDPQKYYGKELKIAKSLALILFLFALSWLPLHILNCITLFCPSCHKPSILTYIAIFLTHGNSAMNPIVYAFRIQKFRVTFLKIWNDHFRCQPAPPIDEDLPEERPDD
Sequence of Histamine H1 receptor (Homo sapiens) (P35367 whole entry): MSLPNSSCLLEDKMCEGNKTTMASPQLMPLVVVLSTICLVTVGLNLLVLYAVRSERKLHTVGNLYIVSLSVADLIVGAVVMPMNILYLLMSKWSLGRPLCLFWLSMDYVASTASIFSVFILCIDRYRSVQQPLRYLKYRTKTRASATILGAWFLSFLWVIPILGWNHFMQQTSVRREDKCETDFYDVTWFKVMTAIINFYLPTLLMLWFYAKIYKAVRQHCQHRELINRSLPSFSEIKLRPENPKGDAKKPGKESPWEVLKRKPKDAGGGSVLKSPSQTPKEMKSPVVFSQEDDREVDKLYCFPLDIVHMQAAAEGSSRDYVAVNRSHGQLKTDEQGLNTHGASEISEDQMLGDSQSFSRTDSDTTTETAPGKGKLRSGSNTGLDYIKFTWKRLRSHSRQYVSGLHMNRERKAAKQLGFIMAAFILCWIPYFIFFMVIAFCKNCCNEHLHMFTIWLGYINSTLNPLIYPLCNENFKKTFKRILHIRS
Sequence of Tyrosine 3-monooxygenase (Homo sapiens) (P07101 whole entry): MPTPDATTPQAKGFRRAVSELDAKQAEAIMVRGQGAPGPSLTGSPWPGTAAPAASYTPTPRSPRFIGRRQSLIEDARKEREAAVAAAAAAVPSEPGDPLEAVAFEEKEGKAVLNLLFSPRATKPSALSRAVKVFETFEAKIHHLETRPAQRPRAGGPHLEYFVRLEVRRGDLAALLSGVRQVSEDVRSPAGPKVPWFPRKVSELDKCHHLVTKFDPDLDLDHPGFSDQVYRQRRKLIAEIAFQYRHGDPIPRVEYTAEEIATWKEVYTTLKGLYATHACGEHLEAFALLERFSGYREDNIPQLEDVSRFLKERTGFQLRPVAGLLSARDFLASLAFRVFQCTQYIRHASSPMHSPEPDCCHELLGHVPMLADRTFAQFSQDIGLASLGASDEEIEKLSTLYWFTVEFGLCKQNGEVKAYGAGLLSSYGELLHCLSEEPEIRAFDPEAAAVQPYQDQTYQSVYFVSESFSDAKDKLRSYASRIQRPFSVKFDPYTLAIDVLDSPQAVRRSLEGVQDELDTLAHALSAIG
Sequence of Amine oxidase [flavin-containing] A (P21397 whole entry): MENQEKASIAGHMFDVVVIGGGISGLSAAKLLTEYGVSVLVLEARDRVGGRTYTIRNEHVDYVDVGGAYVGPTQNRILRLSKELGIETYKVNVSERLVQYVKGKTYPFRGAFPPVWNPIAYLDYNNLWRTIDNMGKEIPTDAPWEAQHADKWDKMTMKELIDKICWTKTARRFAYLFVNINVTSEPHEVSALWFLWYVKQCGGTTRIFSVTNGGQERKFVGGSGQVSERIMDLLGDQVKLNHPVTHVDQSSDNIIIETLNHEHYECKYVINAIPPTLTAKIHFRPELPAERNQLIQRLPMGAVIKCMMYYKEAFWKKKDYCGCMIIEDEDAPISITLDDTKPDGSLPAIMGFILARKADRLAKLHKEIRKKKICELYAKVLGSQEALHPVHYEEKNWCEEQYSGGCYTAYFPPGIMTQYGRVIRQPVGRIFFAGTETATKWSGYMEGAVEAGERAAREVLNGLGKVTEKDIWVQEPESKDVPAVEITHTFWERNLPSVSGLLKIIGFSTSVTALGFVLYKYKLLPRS
Sequence of Cholecystokinin receptor type A (Homo sapiens) (P32238 whole entry): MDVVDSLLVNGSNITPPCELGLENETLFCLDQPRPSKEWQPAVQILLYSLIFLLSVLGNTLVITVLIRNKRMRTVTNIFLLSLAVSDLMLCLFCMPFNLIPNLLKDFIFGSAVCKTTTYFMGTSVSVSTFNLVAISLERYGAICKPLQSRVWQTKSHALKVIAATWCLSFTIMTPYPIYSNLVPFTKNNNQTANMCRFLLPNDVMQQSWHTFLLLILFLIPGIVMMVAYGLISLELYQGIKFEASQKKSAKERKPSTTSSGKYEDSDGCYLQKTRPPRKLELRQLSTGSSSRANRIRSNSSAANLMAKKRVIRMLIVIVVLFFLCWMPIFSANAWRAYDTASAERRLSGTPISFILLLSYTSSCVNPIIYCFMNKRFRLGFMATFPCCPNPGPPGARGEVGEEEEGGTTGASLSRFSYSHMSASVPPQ
Sequence of D(4) dopamine receptor (Homo sapiens) (P21917 whole entry): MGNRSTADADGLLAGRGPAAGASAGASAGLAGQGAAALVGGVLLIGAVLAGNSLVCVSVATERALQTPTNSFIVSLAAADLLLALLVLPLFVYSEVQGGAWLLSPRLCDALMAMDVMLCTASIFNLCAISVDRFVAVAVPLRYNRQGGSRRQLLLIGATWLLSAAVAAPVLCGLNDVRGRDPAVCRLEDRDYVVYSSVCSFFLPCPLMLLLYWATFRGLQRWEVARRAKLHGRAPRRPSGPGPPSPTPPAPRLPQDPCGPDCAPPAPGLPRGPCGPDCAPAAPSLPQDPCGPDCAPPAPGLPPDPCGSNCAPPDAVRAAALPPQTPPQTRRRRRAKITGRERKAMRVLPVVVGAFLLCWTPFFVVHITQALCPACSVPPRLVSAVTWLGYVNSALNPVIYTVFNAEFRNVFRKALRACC
Sequence of 4-aminobutyrate aminotransferase, mitochondrial (Homo sapiens) (P80404 whole entry): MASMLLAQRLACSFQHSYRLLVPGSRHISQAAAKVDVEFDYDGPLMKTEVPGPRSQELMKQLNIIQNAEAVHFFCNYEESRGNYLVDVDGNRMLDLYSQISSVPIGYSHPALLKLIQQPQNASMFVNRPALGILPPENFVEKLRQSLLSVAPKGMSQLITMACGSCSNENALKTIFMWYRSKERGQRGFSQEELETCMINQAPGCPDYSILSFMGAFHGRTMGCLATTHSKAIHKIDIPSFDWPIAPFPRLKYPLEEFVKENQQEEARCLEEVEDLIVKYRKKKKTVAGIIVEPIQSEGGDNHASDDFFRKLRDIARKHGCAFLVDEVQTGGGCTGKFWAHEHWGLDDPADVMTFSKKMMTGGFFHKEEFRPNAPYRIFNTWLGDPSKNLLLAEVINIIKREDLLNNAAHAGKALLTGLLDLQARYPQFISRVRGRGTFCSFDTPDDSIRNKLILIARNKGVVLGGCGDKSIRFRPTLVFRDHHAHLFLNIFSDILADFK
Sequence of Melatonin receptor type 1A (Homo sapiens) (P48039 whole entry): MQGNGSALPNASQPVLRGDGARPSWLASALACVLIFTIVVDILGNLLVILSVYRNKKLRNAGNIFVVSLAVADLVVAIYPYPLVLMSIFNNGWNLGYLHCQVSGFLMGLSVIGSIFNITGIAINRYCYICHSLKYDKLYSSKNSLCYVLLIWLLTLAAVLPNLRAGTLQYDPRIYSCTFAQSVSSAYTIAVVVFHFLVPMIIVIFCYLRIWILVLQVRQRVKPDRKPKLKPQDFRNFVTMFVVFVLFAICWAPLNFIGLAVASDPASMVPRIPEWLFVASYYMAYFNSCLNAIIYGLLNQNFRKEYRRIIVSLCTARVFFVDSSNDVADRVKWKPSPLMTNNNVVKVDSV
Sequence of Transmembrane domain-containing protein TMIGD3 (Homo sapiens) (P0DMS9 whole entry, the tested form may be a part): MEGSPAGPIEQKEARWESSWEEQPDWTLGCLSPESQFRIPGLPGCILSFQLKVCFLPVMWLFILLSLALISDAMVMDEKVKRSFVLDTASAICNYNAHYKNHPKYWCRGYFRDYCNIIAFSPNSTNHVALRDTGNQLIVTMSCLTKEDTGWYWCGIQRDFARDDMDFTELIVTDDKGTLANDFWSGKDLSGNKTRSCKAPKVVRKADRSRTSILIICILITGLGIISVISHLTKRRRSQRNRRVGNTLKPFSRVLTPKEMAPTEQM
Sequence of Calcitonin gene-related peptide 1 (Homo sapiens) (P06881 83-119 limits assumed): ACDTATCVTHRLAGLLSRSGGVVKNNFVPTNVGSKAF

For `CCCCCCNC(=O)Oc1cccc(-c2ccc([C@H](C)C(=O)O)cc2F)c1`, the Activity [1] was -1.5%, the Activity [2] was -9.9% and the Activity [3] was -8%. For the same compound, the Activity [4] was -1.8%, the Activity [5] was -4.4% and the Activity [6] was -10.7%. For the same compound, the Activity [7] was 0.5%, the Activity [8] was -3.2% and the Activity [9] was -8.1%. It also gave an Activity [10] of 18.8%, an Activity [11] of -3% and an Activity [12] of 1.8%. The Activity [13] was 0.7%, the Activity [14] was 17.9% and the Activity [15] was 12.4%. For the same compound, the Activity [16] was 0.3%, the IC50 [17] was 0.29 nM and the Activity [18] was 2.8%. The inhibition [19] was “Active”, the Activity [20] was 38.1% and the Activity [21] was 10.8%. For the same compound, the Activity [22] was 0.8%, the Activity [23] was 0.4% and the Activity [24] was -11.2%. The Activity [25] was -7.7%, the Activity [26] was 7.6% and the Activity [27] was -11.7%. The Activity [28] was -4.8%.
